Series [1] in a line: Drug absorption experiment in SD rats, intragastric administration. Format: in vivo, SD rats (Sprague Dawley rats). To be noted: for half-life: read-out: T1/2 (elimination half-life) (converted). As to the method: The determination method for the absolute bioavailability of the intragastric administration of the mesylate salts of the compound of formula (I) is as follows: • For intravenous administration: Healthy SD rats are randomly grouped. The tested compound is administered in a certain dosage D through the intravenous administration. The blood samples are collected through the retrobulbar venous plexus before the administration and 5 min, 15 min, 0.5 h, 1.0 h, 2.0 h, 4.0 h, 8.0 h, 12 h and 24 h after the administration, and separated to give plasmas. […] The tested substance is administered in a certain dosage D through the intragastric administration.
After dosage calibration, the absolute bioavailability F is calculated by the area under the drug concentration-time curve (AUC0-t). The calculation equation is as follows: F=(AUCintragastric×Dintravenous)/(AUCintravenous[…])×100%.
For intragastric administration: 16 healthy (half male and half female) SD rats with 200-280 g body weight, provided by Shanghai Sippr-BK laboratory animal Co. Ltd., were assigned randomly to 4 groups.
After dosage calibration, the absolute bioavailability F was obtained by calculation of AUC0-t. The calculation equation was as follows: F=(AUCintragastric×Dintravenous)/(AUCintravenous×Dintragastric)×100%. The obtained absolute bioavailability F data are shown in the above table 2.

Series [2] can be described thus: Drug absorption experiment in SD rats, intravenous administration. Format: in vivo, SD rats (Sprague Dawley rats). The note with it: plasma. The method, then: The determination method for the absolute bioavailability of the intragastric administration of the mesylate salts of the compound of formula (I) is as follows: • For intravenous administration: Healthy SD rats are randomly grouped. The tested compound is administered in a certain dosage D through the intravenous administration. The blood samples are collected through the retrobulbar venous plexus before the administration and 5 min, 15 min, 0.5 h, 1.0 h, 2.0 h, 4.0 h, 8.0 h, 12 h and 24 h after the administration, and separated to give plasmas. The concentration of the drug in plasma is determined with the liquid chromatography-tandem mass spectrometry method to give a drug concentration-time curve. • For intragastric administration: Healthy SD rats are randomly grouped. The tested substance is administered in a certain dosage D through the intragastric administration. The intravenous blood samples are collected through the rat's retrobulbar venous plexus before the administration and 0.5, 1.0, 2.0, 4.0, 6.0, 8.0, 10, 12 and 24 h after the administration, and separated to give plasmas. The concentration of the drug in plasma is determined with the liquid chromatography-tandem mass spectrometry method to give a drug concentration-time curve.
For intravenous administration: 16 healthy (half male and half female) SD rats with 200-280 g body weight, provided by Shanghai Sippr-BK laboratory animal Co. Ltd., were assigned randomly to 4 groups. […] 0.2 ml of the intravenous blood samples were collected through the rat's retrobulbar venous plexus before the administration and 5 min, 15 min, 0.5 h, 1.0 h, 2.0 h, 4.0 h, 8.0 h, 12 h and 24 h after the administration, and separated to give plasmas. The concentration of the drug in plasma was determined with the liquid chromatography-tandem mass spectrometry method to give a drug concentration-time curve.
T1/2: elimination half-life; Cmax: maximum drug concentration in plasma; AUC0-t: area under drug concentration-time curve.

Series [3] relates to subcutaneously transplanted tumors of human lung cancer H1975. Nature of the series: Inhibition effect on the growth of subcutaneously transplanted tumors of human lung cancer H1975-bearing nude mice. Format: in vivo. The note with it: 25 mg/kg intragastric, once per day for 21 days. The text has this: The pharmacodynamics of the mesylate salts of the compound of formula (I) in terms of inhibiting the growth of transplanted tumors in animal may be assayed by conventional methods. One preferable evaluation method aims to the inhibitory effect on the growth of subcutaneously transplanted tumors of human lung cancer H1975-bearing nude mice. The experimental method may be as follows: human lung cancer H1975 cell strain (5×10^6/each mouse) is inoculated to nude mice subcutaneously at the right side of the back thereof. After the tumors grow to 100-150 mm^3 on average, the animals are divided into groups randomly according to the tumor size and the animal weight. […] During the entire experimental process, the animal weight and the tumor size are measured twice per week, so as to observe whether or not the toxic reaction occurs.
The tumor volume is calculated as follows: Tumor volume (mm^3)=0.5×Tumor major diameter×Tumor minor diameter×Tumor minor diameter. […]
Cell cultivation: H1975 was placed in a RPMI-1640 medium containing 10% FBS, and cultivated in a temperature-constant incubator containing 5% CO2 at 37° C. The cells in exponential growth phase were collected and counted for inoculation. […]
The tumor volume was calculated as follows: Tumor volume (mm^3)=0.5×Tumor major diameter×Tumor minor diameter×Tumor minor diameter.

The mark [4] stands for this setting: both sexes, Sprague-Dawley, rat, plasma, po, intragastric, dosage 10 (Example 1), 10 (Example 2), 6 (Comparative Example 1), 10 (Comparative Example 2) mg/kg, plasma, read-out: AUC0-t.
[5] abbreviates: both sexes, Sprague-Dawley, rat, plasma, po, intragastric, dosage 10 (Example 1), 10 (Example 2), 6 (Comparative Example 1), 10 (Comparative Example 2) mg/kg, plasma, read-out: Cmax.
Where [6] appears, read: both sexes, Sprague-Dawley, rat, plasma, po, intragastric, dosage 10 (Example 1), 10 (Example 2), 6 (Comparative Example 1), 10 (Comparative Example 2) mg/kg, plasma.
Setting [7] is: SD rats, intravenous, dosage 2.5 (Example 1), 4.0 (Example 2), 3.0 (Comparative Example 1), 4.0 (Comparative Example 2) mg/kg.
The mark [8] stands for this setting: intragastric, dosage 10 (Example 1), 10 (Example 2), 6 (Comparative Example 1), 10 (Comparative Example 2) mg/kg, plasma.

SMILES strings stand for the structures. Structures can show the parent of a compound that is named as a salt.

Take `C=CC(=O)Nc1cc(Nc2nccc(-c3cn(C)c4ccccc34)n2)c(OC(C)C)nc1N(C)CCN(C)C` [Comparative Example 1, reference compound]: in series [1] (setting [4]), the AUC(0-t) is 77.7 ng·h/mL. Moreover, in series [1] (setting [5]), the Cmax stood at 12.6 ng/mL. Moreover, the half-life in series [1] (setting [6]) was 8.6 h.
Take `C=CC(=O)Nc1cc(Nc2ncc(Cl)c(-c3cn(C)c4ccccc34)n2)c(OC(C)C)nc1N(C)CCN(C)C` [Comparative Example 2, reference compound]: in series [1] (setting [4]), the AUC(0-t) was determined as 172 ng·h/mL. The Cmax in series [1] (setting [5]) turned out to be 28.3 ng/mL. The half-life in series [1] (setting [6]) was 5.76 h.
`C=CC(=O)Nc1cc(Nc2nccc(-c3cn(C)c4ccccc34)n2)c(OCC(F)(F)F)nc1N(C)CCN(C)C` [Example 1, N-{2-{[2-(dimethylamino)ethyl](methyl)amino}-6-(2,2,2-trifluoroethoxy)-5-{[4-(1-methyl-1H-indol-3-yl)pyrimidin-2-yl]amino}pyridin-3-yl}acrylamide]: in series [2] (setting [7]), the AUC(0-t) came out at 307.3 ng·h/mL, the Cmax is reported as 81.3 ng/mL and the “T1/2 (elimination half-life)” value was 3.96 h. In addition, in series [1] (setting [4]), the AUC(0-t) worked out at 232 ng·h/mL. Further, in series [1] (intragastric vs intravenous, calculated from AUC0-t after dosage calibration), the “F (absolute bioavailability)” value is listed as 18.85%. Besides, the Cmax in series [1] (setting [8]) amounted to 17.6 ng/mL.
For `C=CC(=O)Nc1cc(Nc2nccc(-c3cn(C)c4ccccc34)n2)c(OCC(F)(F)F)nc1N(C)CCN(C)C` [Example 2, mesylate salt of N-{2-{[2-(dimethylamino)ethyl](methyl)amino}-6-(2,2,2-trifluoroethoxy)-5-{[4-(1-methyl-1H-indol-3-yl)pyrimidin-2-yl]amino}pyridin-3-yl}acrylamide], the AUC(0-t) in series [2] (both sexes, Sprague-Dawley, rat, iv, read-out: AUC0-t) stood at 406 ng·h/mL. Besides, the Cmax in series [2] (both sexes, Sprague-Dawley, rat, iv, read-out: Cmax) worked out at 430 ng/mL. Besides, the half-life in series [2] (both sexes, Sprague-Dawley, rat, iv, read-out: T1/2 (elimination half-life) (converted)) was 3.13 h. Further, in series [1] (both sexes, Sprague-Dawley, rat, plasma, oral, intragastric vs intravenous, calculated from AUC0-t after dosage calibration, read-out: F (absolute bioavailability)), the bioavailability was 28.3%. Besides, in series [1] (setting [8]), the AUC(0-t) is 287 ng·h/mL, the highest concentration (Cmax) came out at 44.54 ng/mL and the “T1/2 (elimination half-life)” value is 8.33 h. Moreover, in series [3], the “Inhibition effect on the growth of subcutaneously transplanted tumors” value was “good inhibition effect” and the “Safety (body weight, toxic reaction)” value is recorded as “good safety”.

For orientation: Cmax means the maximum level reached in the sampled fluid or tissue. In general, bioavailability refers to the share of a dose that reaches the circulation, judged against a reference dose that is usually intravenous.
